Experimental data: ChEMBL document CHEMBL3046057, “Synthesis and leishmanicidal activity of quinolinetriclosan and quinolineeugenol hybrids” (Med Chem Res, 2012)
Values after ≈ are worked out from the molar mass of the structure shown.

Experiments:
[1] = Selectivity index, ratio of LC50 for human U937 cells to EC50 for intracellular amastigote stage of Leishmania panamensis MHOM/CO/87/UA140epir GFP infected in human U937 cells; format: toxicity, cell-based, U-937; settings: for selectivity ratio: read-out: Selectivity Index
[2] = Selectivity index, ratio of LC50 for human U937 cells to EC50 for axenic amastigote stage of Leishmania panamensis MHOM/CO/87/UA140epir GFP; format: toxicity, cell-based, U-937; settings: for selectivity ratio: U937 cells, axenic amastigotes of Leishmania panamensis, read-out: Selectivity Index
[3] = tested on: Leishmania panamensis; experiment: Leishmanicidal activity against axenic amastigote stage of Leishmania panamensis MHOM/CO/87/UA140epir GFP assessed as parasite viability after 72 hr by MTT assay; format: functional, organism-based
[4] = tested on: Leishmania panamensis; experiment: Leishmanicidal activity against intracellular amastigote stage of Leishmania panamensis MHOM/CO/87/UA140epir GFP infected in human U937 cells assessed as parasite viability after 72 hr by flow cytometric analysis; format: functional, organism-based, U-937
[5] = (§1) Cytotoxicity against Homo sapiens (human) U937 cells assessed as cell viability after 72 hr by MTT assay; format: cell-based, U-937; settings: U937 cells, read-out: LC50
[6] = tested on: U-937; experiment: as §1; format: cell-based; settings: u-937, 72 h
[7] = Leishmania panamensis, MHOM/CO/87/UA140epir GFP, 72 h, read-out: EC50
[8] = Leishmania panamensis, MHOM/CO/87/UA140epir GFP, U-937, 72 h, read-out: EC50

Compound	selectivity ratio [1]	selectivity ratio [2]	EC50 [3, 7] [µg/mL]	EC50 [4, 8] [µg/mL]	CC50 at 72 h [5] [µg/mL]	Selectivity Index ([1]; u-937)	Selectivity Index ([2]; u-937)	EC50 [3] [µg/mL]	EC50 ([4]; u-937) [µg/mL]	LC50 [6] [µg/mL]
C[C@@H]1[C@H](O)[C@@H](C)/C=C/C=C/C=C/C=C/C=C/C=C/C=C/[C@H](O[C@@H]2O[C@H](C)[C@@H](O)[C@H](N)[C@@H]2O)C[C@@H]2O[C@](O)(C[C@@H](O)C[C@@H](O)[C@H](O)CC[C@@H](O)C[C@@H](O)CC(=O)O[C@H]1C)C[C@H](O)[C@H]2C(=O)O [AMPHOTERICIN B]	970	776	0.05 (≈ 0.0541 µM)	0.04 (≈ 0.0433 µM)	38.8 (≈ 42 µM)	–	–	–	–	–
Cc1ccc2cccc(O)c2n1 [8-HYDROXY QUINALDINE]	–	2.9	2.6 (≈ 16.3 µM)	–	7.6 (≈ 47.7 µM)	–	–	–	–	–
MEGLUMINE ANTIMONATE	–	–	–	–	–	> 147.05	> 1	> 1000	6.8	> 1000
Cc1ccc2cccc(OCCCCCCCCCCCCOc3cc(Cl)ccc3Oc3ccc(Cl)cc3Cl)c2n1	–	> 2	> 100	–	> 200	–	–	–	–	–
Oc1cc(Cl)ccc1Oc1ccc(Cl)cc1Cl [TRICLOSAN]	–	0.4	11.3 (≈ 39 µM)	–	4.8 (≈ 16.6 µM)	–	–	–	–	–
C=CCc1ccc(OCCCCCCCCCOc2cccc3ccc(C)nc23)c(OC)c1	–	0.7	21.1 (≈ 47.1 µM)	–	14.1 (≈ 31.5 µM)	–	–	–	–	–
C=CCc1ccc(OCCCCCCCCOc2cccc3ccc(C)nc23)c(OC)c1	3.8	0.5	29.6 (≈ 68.3 µM)	3.9 (≈ 8.99 µM)	14.7 (≈ 33.9 µM)	–	–	–	–	–
C=CCc1ccc(OCCCCCCCCCCCCOc2cccc3ccc(C)nc23)c(OC)c1	4.7	–	> 100	17.4 (≈ 35.5 µM)	82.9 (≈ 169 µM)	–	–	–	–	–
Cc1ccc2cccc(OCCCCCCCCOc3cc(Cl)ccc3Oc3ccc(Cl)cc3Cl)c2n1	–	> 2	> 100	–	> 200	–	–	–	–	–
C=CCc1ccc(OCCCCCOc2cccc3ccc(C)nc23)c(OC)c1	–	1	9.5 (≈ 24.3 µM)	–	10.5 (≈ 26.8 µM)	–	–	–	–	–
C=CCc1ccc(OCCCOc2cccc3ccc(C)nc23)c(OC)c1	–	1	6.9 (≈ 19 µM)	–	6.8 (≈ 18.7 µM)	–	–	–	–	–
Cc1ccc2cccc(OCCCCCOc3cc(Cl)ccc3Oc3ccc(Cl)cc3Cl)c2n1	24.6	14.4	4.1 (≈ 7.93 µM)	2.4 (≈ 4.64 µM)	59.2 (≈ 115 µM)	–	–	–	–	–
Cc1ccc2cccc(OCCCCCCCCCOc3cc(Cl)ccc3Oc3ccc(Cl)cc3Cl)c2n1	–	> 2	> 100	–	> 200	–	–	–	–	–
C=CCc1ccc(OCCCCOc2cccc3ccc(C)nc23)c(OC)c1	< 1	0.5	38.9 (≈ 103 µM)	> 31.3	31.3 (≈ 82.9 µM)	–	–	–	–	–
Cc1ccc2cccc(OCCCOc3cc(Cl)ccc3Oc3ccc(Cl)cc3Cl)c2n1	> 31.2	> 8.5	23.6 (≈ 48.3 µM)	6.4 (≈ 13.1 µM)	> 200	–	–	–	–	–
Cc1ccc2cccc(OCCCCOc3cc(Cl)ccc3Oc3ccc(Cl)cc3Cl)c2n1	> 2	> 20.6	9.7 (≈ 19.3 µM)	> 100	> 200	–	–	–	–	–
C=CCc1ccc(O)c(OC)c1 [EUGENOL]	–	0.7	21.4 (≈ 130 µM)	–	14.2 (≈ 86.5 µM)	–	–	–	–	–
